pIC50: −log10 of the molar value. Where two headings read alike, the source gives them in different places.
Key:
[1] = target: recombinant human IL-17AA (Homo sapiens, UniProt Q16552); assay: IL-6 release from NHDF cells, IL-17AA plus TNF-α stimulation; type: cell-based; conditions: 24 hours, IL-6 by ELISA
How it was run: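 IL-17-specific IL-6 release from NHDF cells adhered overnight; compounds pre-incubated 30 min at room temperature with human IL-17AA plus TNF-α, then 24 h on cells at 37° C. Final DMSO 0.1% or plasma 20%; IL-6 by ELISA (450 nm). TNF-α-only IL-6 subtracted before IC50 fit.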

[2] = target: biotinylated human IL-17A / AF647-labeled human IL-17RA (Homo sapiens, UniProt Q16552); assay: Human IL-17A×IL-17RA TR-FRET assay; type: binding
How it was run: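 Compounds tested in duplicate at each concentration; neutral controls contain all components with DMSO in place of compound.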

[3] = NHDF cells, IL-17AA 30 pM plus TNF-α 6 pM, read-out: IL17AA + TNF IC50 IL-6
[4] = TR-FRET, biotinylated human IL-17A 5 nM, AF647-labeled human IL-17RA 30 nM, read-out: IL17AA FRET/ IL17Rawt IC50
[5] = NHDF cells, IL-17AA 30 pM + TNF-α 6 pM, reference examples (pyridines), read-out: IL 17AA + TNF IC50 IL-6
[6] = TR-FRET, 5 nM IL-17A, 30 nM IL-17RA, reference examples (pyridines), read-out: IL17AA FRET/ IL17RAwt IC50

Sequence of biotinylated human IL-17A / AF647-labeled human IL-17RA (Q16552 24-155): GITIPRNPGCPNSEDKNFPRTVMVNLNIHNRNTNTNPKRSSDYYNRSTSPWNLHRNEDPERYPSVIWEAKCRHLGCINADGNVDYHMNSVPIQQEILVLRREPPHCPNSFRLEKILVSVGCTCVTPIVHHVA
Sequence of recombinant human IL-17AA (Q16552 24-155): as above

Row | pIC50 [1, 5] | pIC50 [2, 6] | SMILES | also measured
1 |  |  | CCc1nocc1C(=O)N[C@H](C(=O)Nc1ccc(-c2c(C(F)(F)F)cc[n+]([O-])c2C)cc1)C1CCCC1 [Example 5, (S)-3-(4-(2-cyclopentyl-2-(3-ethylisoxazole-4-carboxamido)acetamido)phenyl)-2-methyl-4-(trifluoromethyl)pyridine 1-oxide] | pIC50 [1, 3]: 8.05; pIC50 [2, 4]: 7.55; melting point: 149 to 151 °C
2 |  |  | CCc1nocc1C(=O)N[C@H](C(=O)Nc1ccc(-c2c(Cl)cc[n+]([O-])c2C)cc1)[C@H]1CCCC(F)(F)C1 [Example 6, 4-chloro-3-(4-((S)-2-((S)-3,3-difluorocyclohexyl)-2-(3-ethylisoxazole-4-carboxamido)acetamido)phenyl)-2-methylpyridine 1-oxide] | pIC50 [1, 3]: 8.30; pIC50 [2, 4]: 7.32; melting point: 247 to 250 °C
3 |  |  | Cc1c(-c2ccc(NC(=O)C(NC(=O)c3ccnn3C)[C@H]3C[C@@H]4C[C@@H]4C3)cc2F)c(Cl)cc[n+]1[O-] (stereo partly drawn) [Example 225, 3-(4-(2-((1R,3s,5S)-bicyclo[3.1.0]hexan-3-yl)-2-(1-methyl-1H-pyrazole-5-carboxamido)acetamido)-2-fluorophenyl)-4-chloro-2-methylpyridine 1-oxide] | pIC50 ([1]; IL17AA + TNF IC50 IL-6, NHDF cells, IL-17AA 30 pM + TNF-α 6 pM): 7.92; pIC50 ([2]; IL17AA FRET/ IL17Rawt IC50, TR-FRET, 5 nM IL-17A, 30 nM IL-17RA): 7.54
4 | 7.30 | 6.93 | Cc1ccnc(C)c1-c1ccc(NC(=O)[C@@H](NC(=O)c2ccnn2C)[C@H]2CCCc3ccccc32)cc1 [compound 136, N—((S)-2-((4-(2,4-dimethylpyridin-3-yl)phenyl)amino)-2-oxo-1-((S)-1,2,3,4-tetrahydronaphthalen-1-yl)ethyl)-1-methyl-1H-pyrazole-5-carboxamide, reference compound] | 
5 | 7.26 | 6.26 | Cc1ccnc(C)c1-c1ccc(NC(=O)[C@@H](NC(=O)c2ccnn2C)[C@H]2CC[C@H](C)CC2)cc1 [compound 138, N-((S)-2-((4-(2,4-dimethylpyridin-3-yl)phenyl)amino)-1-((1r,4S)-4-methylcyclohexyl)-2-oxoethyl)-1-methyl-1H-pyrazole-5-carboxamide, reference compound] | 
6 | 6.82 | 6.05 | CCc1nocc1C(=O)N[C@H](C(=O)Nc1ccc(-c2c(C(F)(F)F)ccnc2C)cc1)C1CCCC1 [compound 139, (S)-N-(1-cyclopentyl-2-((4-(2-methyl-4-(trifluoromethyl)pyridin-3-yl)phenyl)amino)-2-oxoethyl)-3-ethylisoxazole-4-carboxamide, reference compound] | 
7 | 6.15 | 5.38 | Cc1ccnc(C)c1-c1ccc(NC(=O)[C@@H](NC(=O)c2ccnn2C)[C@@H]2CC=C(F)CC2)cc1 [compound 144, N-((S)-2-((4-(2,4-dimethylpyridin-3-yl)phenyl)amino)-1-((S)-4-fluorocyclohex-3-en-1-yl)-2-oxoethyl)-1-methyl-1H-pyrazole-5-carboxamide, reference compound] | 

From patent publication US12600728B2, “Interleukin-17 inhibitors” (priority 2020, dated 2026)
